Test results as given in ChEMBL document CHEMBL6153110, “Peptide Double-Stapling and Arginine N-Glycosylation Triggered the Development of Therapeutic Antimicrobial Peptides Capable of Killing Drug-Resistant Bacteria in Mice” (J Med Chem, 2025).
In brackets after ≈: the same amount, converted by molar mass. Activity calls are given as the source filed them. No cut-off for these calls is given here. Positions of bridges follow the written chain, without caps; N, C: chain ends. Non-standard residues stand in square brackets, D forms with d. Residues, ends and D or L forms follow the SMILES beside them. Arg(Nω-βLac) = N=C(NCCC[C@H](N)C(=O)O)N[C@@H]1O[C@H](CO)[C@@H](O[C@@H]2O[C@H](CO)[C@H](O)[C@H](O)[C@H]2O)[C@H](O)[C@H]1O; S5 = C=CCCC[C@](C)(N)C(=O)O

Legend:
Cell membrane [1] = assay: Induction of cell membrane damage in methicillin-resistant Staphylococcus aureus ATCC 43300 assessed as increase in red fluorescence at MIC measured after 1 hr incubation by PI based flow cytometry; format: subcellular
Cell membrane [2] = assay: Induction of cell membrane damage in Klebsiella pneumoniae ATCC 13883 assessed as increase in green fluorescence at MIC measured after 1 hr incubation by SYTO9 confocal microscopy; format: subcellular
Klebsiella pneumoniae [3] = assay: In vivo antibacterial activity against Klebsiella pneumoniae ATCC 13883 induced bacterial pneumonia mouse model assessed as reduction in bacterial load in lungs at 1 mg/kg, injected into trachea after 24 hrs of infection measured after 3 to 7 days; format: functional, organism-based
Staphylococcus aureus [4] = assay: Antibacterial activity against methicillin-resistant Staphylococcus aureus ATCC 43300 assessed as reduction in bacterial count at 4.6 ug/ml in bio-film adjusted BM2 medium; format: functional, organism-based; conditions: dose 4.6 µg/ml
Klebsiella pneumoniae [5] = assay: In vivo antibacterial activity against Klebsiella pneumoniae ATCC 13883 induced bacterial pneumonia mouse model assessed as increase in survival of mouse at 1 mg/kg, injected into trachea after 24 hrs of infection measured after 3 to 7 days; format: functional, organism-based
Klebsiella pneumoniae [6] = assay: In vivo antibacterial activity against Klebsiella pneumoniae ATCC 13883 induced bacterial pneumonia mouse model assessed as reduction in bacterial infection induced IL-6 mRNA expression in lung tissue at 4 mg/kg, injected into trachea after 24 hrs of infection measured after 3 to 7 days; format: functional, organism-based
Staphylococcus aureus [7] = assay: Antimicrobial activity against methicillin-resistant Staphylococcus aureus ATCC 43300 assessed as growth inhibition measured after 8 hrs incubation by standard broth dilution assay; format: functional
Cell membrane [8] = assay: Induction of cell membrane damage in methicillin-resistant Staphylococcus aureus ATCC 43300 assessed as significant plasma membrane rupture, […], and cytoplasmic leakage at MIC measured after 1 hr incubation by Transmission electron microscopy; format: subcellular
Klebsiella pneumoniae [9] = assay: Antibiofilm activity in Klebsiella pneumoniae ATCC 13883 assessed as prevention of biofilm formation at 0.5 to 4 times of MIC measured after 24 hrs by crystal violet staining based assay; format: functional, organism-based
Klebsiella pneumoniae [10] = assay: In vivo antibacterial activity against Klebsiella pneumoniae ATCC 13883 induced bacterial pneumonia mouse model assessed as reduction in bacterial infection induced IL-1beta mRNA expression in lung tissue at 4 mg/kg, injected into trachea after 24 hrs of infection measured after 3 to 7 days; format: functional, organism-based
Staphylococcus aureus [11] = assay: In vivo antibacterial activity against methicillin-resistant Staphylococcus aureus ATCC 43300 infected locally in full thickness skin wound mouse model assessed as clean and less exudate at 1 mg/kg treated with absorbable gelatin sponge measured on early healing stage; format: functional, organism-based; conditions: route id
Cell membrane [12] = assay: Induction of cell membrane damage in Klebsiella pneumoniae ATCC 13883 assessed as significant plasma membrane rupture, cytosolic membrane and outer membrane separation, and cytoplasmic leakage at MIC measured after 1 hr incubation by Transmission electron microscopy; format: subcellular
Klebsiella pneumoniae [13] = assay: In vivo antibacterial activity against Klebsiella pneumoniae ATCC 13883 induced bacterial pneumonia mouse model assessed as reduction in bacterial infection induced weight loss at 1 mg/kg, injected into trachea after 24 hrs of infection measured after 3 to 7 days; format: functional, organism-based
Staphylococcus aureus [14] = assay: Antibiofilm activity in methicillin-resistant Staphylococcus aureus ATCC 43300 assessed as prevention of biofilm formation at 0.5 to 4 times of MIC measured after 24 hrs by crystal violet staining based assay; format: functional, organism-based
Staphylococcus aureus [15] = assay: In vivo antibacterial activity against methicillin-resistant Staphylococcus aureus ATCC 43300 infected locally in full thickness skin wound mouse model assessed as reduction in bacterial load in skin wound at 1 mg/kg treated with absorbable gelatin sponge measured after 3 days; format: functional, organism-based; conditions: time 3.0 day
[16] = Toxicity in mouse assessed as inflammatory infiltration at 40 mg/kg, sc by H and E staining based assay; format: organism-based; conditions: in vivo
[17] = Toxicity in mouse skin assessed as abscesses and visual lesions at 40 mg/kg, sc by histological analysis; format: organism-based; conditions: in vivo
Cell membrane [18] = assay: Induction of cell membrane damage in Klebsiella pneumoniae ATCC 13883 assessed as increase in red fluorescence at MIC measured after 1 hr incubation by PI based flow cytometry; format: subcellular
Klebsiella pneumoniae [19] = assay: (§1) In vivo antibacterial activity against Klebsiella pneumoniae ATCC 13883 induced bacterial pneumonia mouse model assessed as reduction in bacterial infection induced inflammatory response in lungs by measuring large number of alveoli at 4 mg/kg, injected into trachea after 24 hrs of infection measured after 3 to 7 days by H and E staining based assay; format: functional, organism-based
Staphylococcus aureus [20] = assay: In vivo antibacterial activity against methicillin-resistant Staphylococcus aureus ATCC 43300 infected locally in full thickness skin wound mouse model assessed as reduction in bacterial load in skin wound at 1 mg/kg treated with absorbable gelatin sponge measured after 7 days; format: functional, organism-based; conditions: time 7.0 day
Klebsiella pneumoniae [21] = assay: In vivo antibacterial activity against Klebsiella pneumoniae ATCC 13883 induced bacterial pneumonia mouse model assessed as reduction in bacterial load in lungs at 4 mg/kg, injected into trachea after 24 hrs of infection measured after 3 to 7 days; format: functional, organism-based
Cell membrane [22] = assay: Induction of cell membrane damage in Klebsiella pneumoniae ATCC 13883 assessed as corrugation, blebbing, breakage, and fragmentation at MIC measured after 1 hr incubation by Scanning electron microscopy; format: subcellular
Staphylococcus aureus [23] = assay: Antibiofilm activity in methicillin-resistant Staphylococcus aureus ATCC 43300 assessed as reduction in biofilm formation at 4.6 ug/ml measured after 24 hrs by crystal violet staining based assay relative to control; format: functional; design: scale not given: the % may be the effect or the level left; conditions: dose 4.6 µg/ml
Staphylococcus aureus [24] = assay: In vivo antibacterial activity against methicillin-resistant Staphylococcus aureus ATCC 43300 infected locally in full thickness skin wound mouse model assessed as reduction in bacterial load in skin wound at 4 mg/kg treated with absorbable gelatin sponge measured after 3 days; format: functional, organism-based; conditions: time 3.0 day
Klebsiella pneumoniae [25] = assay: as §1, with “at 1” for “at 4”; format: functional, organism-based
Staphylococcus aureus [26] = assay: In vivo antibacterial activity against methicillin-resistant Staphylococcus aureus ATCC 43300 infected locally in full thickness skin wound mouse model assessed as reduced skin damage by promoting wound healing at 4 mg/kg treated with absorbable gelatin sponge measured on early healing stage; format: functional, organism-based; conditions: route id
Cell membrane [27] = assay: Binding affinity to Klebsiella pneumoniae ATCC 13883 cell membrane treated with FITC labelled peptides at MIC measured after 1.5 hr by CLSM imaging analysis; format: subcellular
Klebsiella pneumoniae [28] = assay: Antimicrobial activity against Klebsiella pneumoniae ATCC 13883 assessed as growth inhibition measured after 8 hrs incubation by standard broth dilution assay; format: functional
Klebsiella pneumoniae [29] = assay: In vivo antibacterial activity against Klebsiella pneumoniae ATCC 13883 induced bacterial pneumonia mouse model assessed as reduction in bacterial infection induced IL-6 level in lung tissue at 4 mg/kg, injected into trachea after 24 hrs of infection measured after 3 to 7 days; format: functional, organism-based
Klebsiella pneumoniae [30] = assay: In vivo antibacterial activity against Klebsiella pneumoniae ATCC 13883 induced bacterial pneumonia mouse model assessed as reduction in bacterial infection induced TNF-alpha mRNA expression in lung tissue at 4 mg/kg, injected into trachea after 24 hrs of infection measured after 3 to 7 days; format: functional, organism-based
Klebsiella pneumoniae [31] = assay: In vivo antibacterial activity against Klebsiella pneumoniae ATCC 13883 induced bacterial pneumonia mouse model assessed as reduction in bacterial infection induced weight loss at 4 mg/kg, injected into trachea after 24 hrs of infection measured after 3 to 7 days; format: functional, organism-based
Klebsiella pneumoniae [32] = assay: In vivo antibacterial activity against Klebsiella pneumoniae ATCC 13883 induced bacterial pneumonia mouse model assessed as increase in survival of mouse at 4 mg/kg, injected into trachea after 24 hrs of infection measured after 3 to 7 days; format: functional, organism-based

CC(=O)N[C@@H](CCCCN)C(=O)N[C@@H](CCCCN)C(=O)N[C@@H](CCCNC(=N)N)C(=O)N[C@H](C(=O)N[C@@H](CCCCN)C(=O)N[C@@H](CCCCN)C(=O)N[C@@H](CCCNC(=N)N)C(=O)N[C@@]1(C)CCC/C=C\CCC[C@@](C)(C(=O)N[C@@H](CCCCN)C(=O)N[C@@]2(C)CCC/C=C\CCC[C@@](C)(C(=O)N[C@@H](CC(C)C)C(=O)N[C@@H](CCCCN)C(=O)N[C@@H](CCCCN)C(=O)N3CCC[C@H]3C(=O)N[C@H](C(=O)N[C@@H](CCCNC(=N)N[C@@H]3O[C@H](CO)[C@@H](O[C@@H]4O[C@H](CO)[C@H](O)[C@H](O)[C@H]4O)[C@H](O)[C@H]3O)C(N)=O)C(C)C)NC(=O)[C@H](CCCNC(=N)N)NC(=O)[C@H](Cc3c[nH]c4ccccc34)NC(=O)[C@H](Cc3ccc(O)cc3)NC2=O)NC(=O)[C@H](CC(C)C)NC(=O)[C@H](CCCCN)NC(=O)[C@H](Cc2ccccc2)NC1=O)C(C)C (Ac-KKRVKKR[S5]FKL[S5]K[S5]YWR[S5]LKKPV[Arg(Nω-βLac)]-NH2; staple (Z) 8-12, 14-18)
Activity (Cell membrane [1]): Active
Activity (Cell membrane [2]): Active
Activity (Klebsiella pneumoniae [3]): Active; Compound Showed Superior Therapeutic Effect Than Slp-0
Activity (Staphylococcus aureus [4]): inactive
Activity (Klebsiella pneumoniae [5]): Active
Activity (Klebsiella pneumoniae [6]): Active
MIC (Staphylococcus aureus [7]): 1.1 µg/mL (≈ 0.31 µM)
Activity (Cell membrane [8]): Active
Activity (Klebsiella pneumoniae [9]): Dose-dependent-effect
Activity (Klebsiella pneumoniae [10]): Active
Activity (Staphylococcus aureus [11]): Active; Model Group Showed Yellowish Compared With The Wounds Treated With Compound
Activity (Cell membrane [12]): Active
Activity (Klebsiella pneumoniae [13]): Active
Activity (Staphylococcus aureus [14]): Dose-dependent-effect
Activity (Staphylococcus aureus [15]): Active
Activity [16]: Toxic
Activity [17]: Non-toxic
Activity (Cell membrane [18]): Active
Activity (Klebsiella pneumoniae [19]): Active
Activity (Staphylococcus aureus [20]): Active
Activity (Klebsiella pneumoniae [21]): Active; Compound Showed Superior Therapeutic Effect Than Slp-0
Activity (Cell membrane [22]): Active
Activity (Staphylococcus aureus [23]): 80.13%
Activity (Staphylococcus aureus [24]): Active
Activity (Klebsiella pneumoniae [25]): Active
Activity (Staphylococcus aureus [26]): Active
Activity (Cell membrane [27]): Active; Compound Exhibited Brighter Red
MIC (Klebsiella pneumoniae [28]): 1.1 µg/mL (≈ 0.31 µM)
Activity (Klebsiella pneumoniae [29]): Active
Activity (Klebsiella pneumoniae [30]): Active
Activity (Klebsiella pneumoniae [31]): Active
Activity (Klebsiella pneumoniae [32]): Active
